Like-named read-outs stand apart in the source and are kept apart here. Bridge positions count the residues as written; N and C are the ends. Square brackets hold non-standard residues; d marks the D form. Peptide text beside a SMILES is read from it. * marks the point of attachment. Heptanoyl(6-Me) = CC(C)CCCCC(=O)*; X1 = CC[C@H](C)CCCCC(=O)*; Dab = NCC[C@H](N)C(=O)O
What was measured:
[1] = assay type: in vitro ADME; conditions: human EDTA plasma QC samples
[2] = human, in vivo
[3] = Polymyxin B1 and B2 plasma levels in further patient samples; conditions: human, in vivo, iv

Plasma concentration of the patient sample of Figure 1E/F [3] [ng/mL]	half-life ([2]; female, iv) [h]	Ratio of polymyxin B2 to polymyxin B1+polymyxin B2 in plasma, mean [2]	Ratio of polymyxin B2 to polymyxin B1+polymyxin B2 in plasma, range [2]	Structure (SMILES)	Stability during repetitive freeze-thaw cycles [1]	Time stable at 4°C ([1]; 4°C)	Time stable at room temperature ([1]; 22°C)	Time stable at −80°C ([1]; −80°C)	Cmax ([2]; female, iv, 1.5 mg/kg) [ng/mL]	half-life ([2]; female, iv, 1.5 mg/kg) [h]	level at 0 h ([2]; female, iv, 1.5 mg/kg) [ng/mL]	level at 12 h ([2]; female, iv, 1.5 mg/kg) [ng/mL]
–	–	–	–	CC[C@H](C)CCCCC(=O)N[C@@H](CCN)C(=O)N[C@H](C(=O)N[C@@H](CCN)C(=O)N[C@H]1CCNC(=O)[C@H]([C@@H](C)O)NC(=O)[C@H](CCN)NC(=O)[C@H](CCN)NC(=O)[C@H](CC(C)C)NC(=O)[C@@H](Cc2ccccc2)NC(=O)[C@H](CCN)NC1=O)[C@@H](C)O [polymyxin B1] (X1-[Dab]T[Dab][Dab][Dab][dF]L[Dab][Dab]T; lactam 4-C)	at least three repetitive freeze-thaw cycles	at least 72 h	at least 24 h	at least 3 months	4830	4.7	1400	1080
322	5.4	0.15	0.13-0.16	CC(C)CCCCC(=O)N[C@@H](CCN)C(=O)N[C@H](C(=O)N[C@@H](CCN)C(=O)N[C@H]1CCNC(=O)[C@H]([C@@H](C)O)NC(=O)[C@H](CCN)NC(=O)[C@H](CCN)NC(=O)[C@H](CC(C)C)NC(=O)[C@@H](Cc2ccccc2)NC(=O)[C@H](CCN)NC1=O)[C@@H](C)O [polymyxin B2] ({Heptanoyl(6-Me)}-[Dab]T[Dab][Dab][Dab][dF]L[Dab][Dab]T; lactam 4-C)	–	–	–	–	–	–	252	214
